Legend:
KCNQ1-M1 channel chimera = experiment: Patch clamp of KCNQ1-M1 chimera currents; assay type: cell-based, human; details: 1 μM ChTX, HEK293 cells, turret and filter region mutant
KCNQ1-M2 chimera channel = experiment: Patch clamp of KCNQ1-M2 chimera currents; assay type: cell-based, human; details: 1 μM ChTX, HEK293 cells, filter region mutant
KCNQ1-M3 chimera channel = experiment: Patch clamp of KCNQ1-M3 chimera currents; assay type: cell-based, human; details: 1 μM ChTX, HEK293 cells, turret region mutant
KCNQ1-K318M channel = experiment: Patch clamp of KCNQ1 single residue mutant at Lys318, sensitivity to ChTX; assay type: cell-based, human; details: site-directed mutant, HEK293 cells, Fig. 3
KCNQ1-Q321V channel = experiment: Patch clamp of KCNQ1 single residue mutant at Q321, sensitivity to ChTX; assay type: cell-based, human; details: site-directed mutant, HEK293 cells, Fig. 3
MmKv2 channel = details: ref [24]; cited from earlier work
MmKv1 channel = details: versus Kv1.3; ref [24]; cited from earlier work

charybdotoxin [ChTX]
inhibition of KCNQ1-M1 channel currents (KCNQ1-M1 channel chimera): effectively inhibited
inhibition of KCNQ1-M2 channel currents (KCNQ1-M2 chimera channel): effectively inhibited
inhibition of KCNQ1-M3 channel currents (KCNQ1-M3 chimera channel): not effectively inhibited
effect of residue Lys318 on the binding of ChTX (KCNQ1-K318M channel): found to affect the binding of ChTX
effect of residue Q321 on the binding of ChTX (KCNQ1-Q321V channel): did not affect the binding of ChTX
sensitivity of MmKv2 toward scorpion venom and ChTX (MmKv2 channel): completely insensitive
sensitivity of MmKv1 toward scorpion venom and ChTX, compared with Kv1.3 (MmKv1 channel): weaker sensitivity
